According to the supplement of paper PMC10307832:

Columns and labels:
Experiment in all cases: relative viability (nuclei count vs DMSO), 5 days (fraction); higher = more cells survive
Tozasertib + Trametinib = compound: Cc1cc(Nc2cc(N3CCN(C)CC3)nc(Sc3ccc(NC(=O)C4CC4)cc3)n2)n[nH]1 [Tozasertib] + CC(=O)Nc1cccc(-n2c(=O)n(C3CC3)c(=O)c3c(Nc4ccc(I)cc4F)n(C)c(=O)c(C)c32)c1 [Trametinib] (partner 0.02 µM)
Summary of the method: (§1)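 Relative viability is defined as nuclei in treated wells over nuclei in vehicle wells. Duplicate plates were run and medians reported. Lung cancer cell lines in 1536-well plates were dosed by pin tool one day after seeding, with one drug or with a fixed anchor-drug dose plus five library-drug doses (not always all listed) in √10 steps, and nuclei were counted after 5 days.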

Tozasertib + Palbociclib = compound: Cc1cc(Nc2cc(N3CCN(C)CC3)nc(Sc3ccc(NC(=O)C4CC4)cc3)n2)n[nH]1 [Tozasertib] + CC(=O)c1c(C)c2cnc(Nc3ccc(N4CCNCC4)cn3)nc2n(C2CCCC2)c1=O [Palbociclib] (partner 0.5 µM)
Summary of the method: as §1

Tozasertib + Crizotinib = compound: Cc1cc(Nc2cc(N3CCN(C)CC3)nc(Sc3ccc(NC(=O)C4CC4)cc3)n2)n[nH]1 [Tozasertib] + C[C@@H](Oc1cc(-c2cnn(C3CCNCC3)c2)cnc1N)c1c(Cl)ccc(F)c1Cl [Crizotinib] (partner 1 µM)
Summary of the method: as §1

Tozasertib + Decitabine = compound: Cc1cc(Nc2cc(N3CCN(C)CC3)nc(Sc3ccc(NC(=O)C4CC4)cc3)n2)n[nH]1 [Tozasertib] + Nc1ncn([C@H]2C[C@H](O)[C@@H](CO)O2)c(=O)n1 [Decitabine] (partner 2 µM)
Summary of the method: as §1

Tozasertib + Vorinostat = compound: Cc1cc(Nc2cc(N3CCN(C)CC3)nc(Sc3ccc(NC(=O)C4CC4)cc3)n2)n[nH]1 [Tozasertib] + O=C(CCCCCCC(=O)Nc1ccccc1)NO [Vorinostat] (partner 1 µM)
Summary of the method: as §1

Row | Cell Line | relative viability (Tozasertib + Trametinib; first compound 0.004 µM) | relative viability (Tozasertib + Trametinib; first compound 0.01265 µM) | relative viability (Tozasertib + Trametinib; first compound 0.04 µM) | relative viability (Tozasertib + Trametinib; first compound 0.1265 µM) | relative viability (Tozasertib + Palbociclib; first compound 0.004 µM) | relative viability (Tozasertib + Palbociclib; first compound 0.01265 µM) | relative viability (Tozasertib + Palbociclib; first compound 0.04 µM) | relative viability (Tozasertib + Palbociclib; first compound 0.1265 µM) | relative viability (Tozasertib + Crizotinib; first compound 0.004 µM) | relative viability (Tozasertib + Crizotinib; first compound 0.01265 µM) | relative viability (Tozasertib + Crizotinib; first compound 0.04 µM) | relative viability (Tozasertib + Crizotinib; first compound 0.1265 µM) | relative viability (Tozasertib + Decitabine; first compound 0.004 µM) | relative viability (Tozasertib + Decitabine; first compound 0.01265 µM) | relative viability (Tozasertib + Decitabine; first compound 0.04 µM) | relative viability (Tozasertib + Decitabine; first compound 0.1265 µM) | relative viability (Tozasertib + Vorinostat; first compound 0.004 µM) | relative viability (Tozasertib + Vorinostat; first compound 0.01265 µM) | relative viability (Tozasertib + Vorinostat; first compound 0.04 µM) | relative viability (Tozasertib + Vorinostat; first compound 0.1265 µM)
1 | 201T | 0.707 | 0.705 | 0.759 | 0.71 | 0.355 | 0.362 | 0.364 | 0.224 | 1.02 | 1.05 | 1.06 | 1.01 | 0.854 | 0.844 | 0.874 | 0.83 | 0.939 | 0.902 | 0.968 | 0.946
2 | A549 |  |  |  |  |  |  |  |  | 0.839 | 0.745 | 0.393 | 0.0848 | 0.27 | 0.266 | 0.282 | 0.199 |  |  |  | 
3 | A-427 | 0.783 | 0.68 | 0.818 | 0.509 | 0.55 | 0.487 | 0.517 | 0.423 | 0.882 | 0.985 | 0.788 | 0.469 | 0.563 | 0.528 | 0.627 | 0.426 | 0.858 | 0.817 | 0.804 | 0.489
4 | ABC-1 |  |  |  |  | 0.722 | 0.769 | 0.44 | 0.533 | 1.21 | 0.992 | 0.565 | 0.249 | 0.989 | 1.03 | 0.539 | 0.44 | 1.35 | 1 | 0.767 | 0.306
5 | BEN | 1.03 | 1.02 |  | 0.961 | 0.455 | 0.475 | 0.481 | 0.432 | 0.91 | 0.921 | 0.907 | 0.727 | 0.739 | 0.688 | 0.755 | 0.501 | 0.551 |  | 0.59 | 0.398
6 | CAL-12T | 0.439 | 0.27 | 0.445 | 0.219 | 0.713 | 0.41 | 0.459 | 0.242 | 0.823 | 0.635 | 0.454 | 0.325 |  |  |  |  | 0.694 | 0.677 | 0.751 | 0.305
7 | COR-L23 | 0.613 | 0.599 | 0.609 | 0.332 | 0.309 | 0.297 | 0.274 | 0.161 | 0.695 | 0.667 | 0.453 | 0.412 | 0.42 | 0.384 | 0.439 | 0.247 | 0.522 | 0.403 | 0.393 | 0.198
8 | COR-L 105 | 0.436 | 0.393 | 0.461 | 0.329 | 0.353 | 0.393 | 0.419 | 0.356 |  | 0.765 | 0.771 | 0.458 | 0.717 | 0.61 | 0.69 | 0.558 | 0.998 |  | 0.936 | 0.512
9 | ChaGo-K-1 | 0.879 | 0.838 | 0.895 | 0.736 | 0.902 | 0.881 | 0.949 | 0.477 | 1.19 | 1.12 | 0.957 | 0.331 | 0.506 | 0.463 | 0.49 | 0.446 | 0.75 | 0.683 | 0.714 | 0.265
10 | EKVX | 0.369 | 0.301 | 0.339 | 0.422 |  | 0.367 | 0.418 | 0.412 | 0.766 |  | 0.932 | 0.802 | 0.265 | 0.345 | 0.354 | 0.316 | 0.665 | 0.543 | 0.637 | 0.613
11 | EMC-BAC-2 | 0.873 | 0.826 | 0.928 |  | 0.542 | 0.501 | 0.514 | 0.433 | 0.803 | 0.704 | 0.461 | 0.23 | 0.977 | 0.86 | 0.918 | 0.58 | 0.438 | 0.233 | 0.242 | 0.15
12 | EPLC-272H | 0.263 | 0.308 | 0.32 | 0.259 | 0.367 | 0.313 | 0.318 | 0.356 | 0.851 | 1.03 | 0.823 |  | 0.369 | 0.325 | 0.368 | 0.318 | 0.521 |  | 0.318 | 0.287
13 | H3255 | 0.578 | 0.618 | 0.552 | 0.659 | 0.33 | 0.292 | 0.315 | 0.324 | 0.801 | 0.765 | 1.01 | 0.769 | 0.71 | 0.475 | 0.592 | 0.558 | 0.86 | 0.676 |  | 0.712
14 | HARA | 0.63 | 0.565 | 0.608 | 0.283 | 0.333 | 0.248 | 0.262 | 0.207 |  | 0.984 | 0.776 | 0.14 | 0.495 | 0.486 | 0.572 | 0.203 | 0.674 | 0.427 | 0.507 | 0.419
15 | HCC-15 | 0.386 | 0.359 | 0.405 | 0.375 | 0.752 | 0.675 | 0.73 | 0.621 | 0.872 | 0.85 | 0.738 | 0.773 | 0.66 | 0.496 | 0.64 | 0.339 | 0.86 | 0.735 | 0.923 | 
16 | HCC-44 |  | 1.03 | 1.22 | 1 | 1.03 | 0.954 | 1.02 | 0.874 | 0.861 | 0.891 | 0.801 | 0.705 | 0.935 | 0.917 | 0.87 | 0.766 | 1.09 | 1 | 1.04 | 0.901
17 | HCC-78 | 0.821 | 0.478 | 0.824 | 0.632 | 0.404 | 0.466 | 0.451 | 0.484 | 0.333 | 0.324 | 0.356 | 0.288 | 0.746 | 0.598 | 0.763 | 0.595 | 0.445 | 0.386 | 0.45 | 0.373
